From the NIST ThermoML archive (doi:10.1016/j.jct.2012.12.007)

Assay: xn = mol fraction of the nth substance listed
Conditions: 101.3 kPa, Liquid; for speed of sound: Sing-around technique in a fixed-path interferometer; for mass density: Vibrating tube method

CCOCCOCCOCC [diethylene glycol diethyl ether] + CCCCCCCCCCO
Conditions | mass density [kg/m3] | speed of sound [m/s]
293.15 K, x2 = 0.0632 | 901.86 | 1267.1
293.15 K, x2 = 0.1084 | 897.94 | 1272.6
293.15 K, x2 = 0.2052 | 889.79 | 1284.5
293.15 K, x2 = 0.294 | 882.49 | 1295.5
293.15 K, x2 = 0.393 | 874.57 | 1308.1
293.15 K, x2 = 0.4943 | 866.66 | 1321.4
293.15 K, x2 = 0.543 | 862.92 | 1327.9
293.15 K, x2 = 0.5932 | 859.11 | 1334.7
293.15 K, x2 = 0.6872 | 852.12 | 1348.1
293.15 K, x2 = 0.7863 | 844.92 | 1363
293.15 K, x2 = 0.8872 | 837.76 | 1378.8
293.15 K, x2 = 0.9441 | 833.82 | 1388.1
298.15 K, x2 = 0.0605 | 897.98 | 1247.8
298.15 K, x2 = 0.111 | 893.68 | 1254.1
298.15 K, x2 = 0.1588 | 889.69 | 1260.1
298.15 K, x2 = 0.2062 | 885.79 | 1266.1
298.15 K, x2 = 0.302 | 878.08 | 1278.3
298.15 K, x2 = 0.3947 | 870.77 | 1290.4
298.15 K, x2 = 0.504 | 862.39 | 1305
298.15 K, x2 = 0.592 | 855.8 | 1317.3
298.15 K, x2 = 0.6553 | 851.16 | 1326.4
298.15 K, x2 = 0.7443 | 844.72 | 1339.5
298.15 K, x2 = 0.7923 | 841.32 | 1347
298.15 K, x2 = 0.8362 | 838.23 | 1353.8
298.15 K, x2 = 0.8836 | 834.93 | 1361.4
298.15 K, x2 = 0.94 | 831.05 | 1370.4
303.15 K, x2 = 0.0605 | 893 | 1229.6
303.15 K, x2 = 0.1016 | 889.54 | 1234.8
303.15 K, x2 = 0.154 | 885.23 | 1241.6
303.15 K, x2 = 0.2064 | 880.99 | 1248.3
303.15 K, x2 = 0.2953 | 873.94 | 1260
303.15 K, x2 = 0.3846 | 867.02 | 1271.7
303.15 K, x2 = 0.5006 | 858.29 | 1287.6
303.15 K, x2 = 0.5369 | 855.6 | 1292.7
303.15 K, x2 = 0.6486 | 847.46 | 1308.7
303.15 K, x2 = 0.7409 | 840.9 | 1322.6
303.15 K, x2 = 0.7915 | 837.36 | 1330.4
303.15 K, x2 = 0.8318 | 834.56 | 1336.7
303.15 K, x2 = 0.8856 | 830.89 | 1345.4
303.15 K, x2 = 0.9364 | 827.44 | 1353.5

CCOCCOCCOCC [diethylene glycol diethyl ether] + CO
Conditions | mass density [kg/m3] | speed of sound [m/s]
293.15 K, x2 = 0.1141 | 904.9 | 1259.4
293.15 K, x2 = 0.1553 | 904.05 | 1259.4
293.15 K, x2 = 0.1987 | 903.07 | 1259.2
293.15 K, x2 = 0.249 | 901.79 | 1258.6
293.15 K, x2 = 0.2972 | 900.38 | 1257.7
293.15 K, x2 = 0.3651 | 898.01 | 1255.9
293.15 K, x2 = 0.3841 | 897.27 | 1255.2
293.15 K, x2 = 0.4206 | 895.72 | 1253.7
293.15 K, x2 = 0.4696 | 893.32 | 1251.3
293.15 K, x2 = 0.5133 | 890.89 | 1248.6
293.15 K, x2 = 0.5624 | 887.61 | 1244.7
293.15 K, x2 = 0.6126 | 883.69 | 1240
293.15 K, x2 = 0.6545 | 879.81 | 1235.1
293.15 K, x2 = 0.698 | 875.07 | 1229
293.15 K, x2 = 0.7575 | 867.11 | 1218.6
293.15 K, x2 = 0.8037 | 859.25 | 1208.1
293.15 K, x2 = 0.8469 | 850.24 | 1196
293.15 K, x2 = 0.9023 | 835.03 | 1175.4
293.15 K, x2 = 0.9467 | 818.74 | 1153.6
298.15 K, x2 = 0.1296 | 900 | 1240
298.15 K, x2 = 0.1589 | 899.4 | 1239.9
298.15 K, x2 = 0.1917 | 898.67 | 1239.7
298.15 K, x2 = 0.2627 | 896.83 | 1239
298.15 K, x2 = 0.2904 | 896.02 | 1238.5
298.15 K, x2 = 0.3505 | 894.01 | 1237.1
298.15 K, x2 = 0.3925 | 892.41 | 1235.8
298.15 K, x2 = 0.4241 | 891.01 | 1234.4
298.15 K, x2 = 0.4639 | 889.09 | 1232.6
298.15 K, x2 = 0.5181 | 886.01 | 1229.3
298.15 K, x2 = 0.5637 | 882.97 | 1225.8
298.15 K, x2 = 0.6132 | 879.12 | 1221.2
298.15 K, x2 = 0.6207 | 878.44 | 1220.4
298.15 K, x2 = 0.6959 | 870.83 | 1210.9
298.15 K, x2 = 0.7434 | 864.68 | 1203
298.15 K, x2 = 0.8007 | 855.37 | 1190.8
298.15 K, x2 = 0.8481 | 845.46 | 1177.7
298.15 K, x2 = 0.9005 | 831.08 | 1158.6
298.15 K, x2 = 0.9476 | 813.97 | 1135.9
303.15 K, x2 = 0.1058 | 895.27 | 1221.5
303.15 K, x2 = 0.1571 | 894.27 | 1221.5
303.15 K, x2 = 0.1991 | 893.31 | 1221.4
303.15 K, x2 = 0.2309 | 892.58 | 1220.9
303.15 K, x2 = 0.2886 | 890.89 | 1220.4
303.15 K, x2 = 0.3249 | 889.71 | 1219.5
303.15 K, x2 = 0.3748 | 887.88 | 1218.2
303.15 K, x2 = 0.4216 | 885.91 | 1216.5
303.15 K, x2 = 0.473 | 883.4 | 1214.1
303.15 K, x2 = 0.5164 | 880.9 | 1211.5
303.15 K, x2 = 0.5681 | 877.47 | 1207.7
303.15 K, x2 = 0.6092 | 874.33 | 1204.1
303.15 K, x2 = 0.6548 | 870.07 | 1199
303.15 K, x2 = 0.6984 | 865.35 | 1193.3
303.15 K, x2 = 0.7448 | 859.28 | 1185.6
303.15 K, x2 = 0.8012 | 849.99 | 1173.9
303.15 K, x2 = 0.8484 | 840.19 | 1161.1
303.15 K, x2 = 0.9007 | 825.94 | 1142.6
303.15 K, x2 = 0.9489 | 808.25 | 1119.6

CCOCCOCCOCC [diethylene glycol diethyl ether] + CCCCO
Conditions | mass density [kg/m3] | speed of sound [m/s]
293.15 K, x2 = 0.1284 | 901.3 | 1262.2
293.15 K, x2 = 0.2205 | 896.11 | 1263.3
293.15 K, x2 = 0.319 | 889.85 | 1264.1
293.15 K, x2 = 0.3623 | 886.86 | 1264.3
293.15 K, x2 = 0.4157 | 882.92 | 1264.5
293.15 K, x2 = 0.4529 | 879.96 | 1264.4
293.15 K, x2 = 0.4963 | 876.35 | 1264.4
293.15 K, x2 = 0.5481 | 871.71 | 1264.3
293.15 K, x2 = 0.6523 | 861.3 | 1263.6
293.15 K, x2 = 0.7018 | 855.73 | 1263.3
293.15 K, x2 = 0.7934 | 844.15 | 1262.1
293.15 K, x2 = 0.8942 | 829.14 | 1260.2
293.15 K, x2 = 0.9397 | 821.36 | 1258.9
298.15 K, x2 = 0.1245 | 896.77 | 1242.5
298.15 K, x2 = 0.2149 | 891.76 | 1243.8
298.15 K, x2 = 0.3175 | 885.38 | 1244.9
298.15 K, x2 = 0.4078 | 879 | 1245.5
298.15 K, x2 = 0.4543 | 875.4 | 1245.6
298.15 K, x2 = 0.5047 | 871.25 | 1245.7
298.15 K, x2 = 0.5543 | 866.84 | 1245.7
298.15 K, x2 = 0.6137 | 861.13 | 1245.5
298.15 K, x2 = 0.6973 | 852.18 | 1245.3
298.15 K, x2 = 0.7951 | 840.07 | 1244.5
298.15 K, x2 = 0.8466 | 832.8 | 1243.9
298.15 K, x2 = 0.9449 | 816.86 | 1241.7
303.15 K, x2 = 0.0738 | 894.47 | 1223.5
303.15 K, x2 = 0.1419 | 890.96 | 1224.8
303.15 K, x2 = 0.218 | 886.73 | 1225.9
303.15 K, x2 = 0.302 | 881.57 | 1227
303.15 K, x2 = 0.3764 | 876.51 | 1227.7
303.15 K, x2 = 0.5002 | 866.9 | 1228.3
303.15 K, x2 = 0.5541 | 862.16 | 1228.4
303.15 K, x2 = 0.6056 | 857.29 | 1228.5
303.15 K, x2 = 0.6997 | 847.32 | 1228.4
303.15 K, x2 = 0.7961 | 835.44 | 1227.9
303.15 K, x2 = 0.8493 | 827.96 | 1227.4
303.15 K, x2 = 0.8896 | 821.8 | 1226.8
303.15 K, x2 = 0.9431 | 812.86 | 1225.8
